*1 amine or outer side, *2 acyl side, *3 side chain or, on linkers, in order; H or OH if unused. Where a SMILES comes first, the peptide text is derived from it. [ ]: non-standard residue; d: D form. The star is where a group is joined. N(CH2CH2CO)Gly = O=C(CN(CCC(=O)[*:3])[*:1])[*:2]; NMe2Val = CC(C)[C@@H](C(=O)*)N(C)C; NHhexadecyl = CCCCCCCCCCCCCCCCN*; X1 = O=C(CN(Cc1cncs1)[*:1])[*:2]; NFurfurylGly = O=C(O)CNCc1ccco1; NMe(benzyl) = CN(Cc1ccccc1)*; NMeV = CN[C@H](C(=O)O)C(C)C; X2 = O=C(NCCCCN*)OCc1ccccc1; Nphe = O=C(O)CNCc1ccccc1; NHcHex = C1CCC(N*)CC1; NHBn = c1ccc(CN*)cc1; NHHex = CCCCCCN*; NHBu = CCCCN*
Legend:
[1] = system: PC-3 cells; details: 48 h
Method: (§1) The anticancer activity of the dolastatin 15 analogs 5a‐i was tested in comparison with cemadotin and the N‐methylated cemadotin derivative 5j against three human cancer cell lines, namely prostate adenocarcinoma PC‐3 cells, colorectal carcinoma HCT‐116 cells, and triple‐negative breast cancer MDA‐MB‐468 cells. In vitro cell viability and cytotoxicity assays were conducted and IC50 curves, and values were determined using the resazurin assay and fluorometric read‐out after 48 h cells’ treatment with the compounds in concentrations covering the micro‐ and nanomolar range (Figure S83, Supporting Information, SI).
(§2) Material and methods for cell-based assays
(§3) Human cell culture materials and cultivation methodology
(§4) The in vitro cell viability and cytotoxicity assays were performed with the human prostate cancer cell line PC-3, the human colorectal cancer cell line HCT-116 and the human triple-negative breast cancer cell line MDA-MB-468; the fluorescence microscopic inspections just with PC-3 cells. The cell lines were obtained from DSMZ (Braunschweig, Germany) and ATCC (Manassas, VA, USA) and cultivated in their specific growth medium. PC-3 cells were cultivated in RPMI 1640 supplemented with 1% (v/v) glutamine, and 10% (v/v) he at-inactivated fetal calf serum (FCS); HCT-116 was cultured in McCoy’s 5a Modified Medium supplemented with 10% (v/v) heat-inactivated FCS; and for MDA-MB-468, DMEM high glucose (4.5 g/L) supplemented with 10% (v/v) heat-inactivated FCS was used.
(§5) All the basal culture media and supplements, like glutamine and FCS, PBS and 0.05% trypsin-EDTA for cell detachment were purchased from Capricorn Scientific GmbH (Ebsdorfergrund, Germany). Cell culture plastics were used from TPP (Trasadingen, Switzerland), Greiner Bio-One (Frickenhausen, Germany) and Sarstedt (Nürnbrecht, Germany). Digitonin was purchased from Riedel De Haën (Seelze, Germany) and DMSO from Duchefa Biochemie (Haarlem, The Netherlands). Resazurin was used from Sigma-Aldrich Chemie GmbH (Taufkirchen, Germany). The tubulin-specific dye reagent SiR-tubulin kit (SC002) and verapamil were purchased from Spirochrome AG (Stein am Rhein, Switzerland), the nuclei stain H33342 was from Thermo Fisher Scientific (Waltham, MA, USA).
(§6) Cultivation was routinely done in T-75 flasks in a humidified atmosphere with 5% CO2 at 37 °C until subconfluency (~ 70-80%) was reached, and the cells were ready for subsequent sub-culturing or assay usage. For that, the adherent cells were rinsed with PBS and detached with trypsin/EDTA (0.05% in PBS) prior to cell passaging and seeding.
(§7) Cell viability assay - methodology
(§8) The impacts of the newly synthesized dolastatin derivatives analogs on the viability and proliferation of the three human cancer cell lines were investigated by performing fluorometric resazurin-based cell viability assays, following a protocol well established in our lab.[3,4] In 3 R. Kufka, R. Rennert, G. N. Kaluđerović, L. Weber, W. Richter, L. A. Wessjohann, Beilstein J. Org. Chem.
(§9) 4 Y. T. H. Lam, J. Hoppe, Q. N. Dang; A. Porzel, A. Soboleva, W. Brandt, R. Rennert, H. Hussain, M. D. Davari, […]
(§10) brief, the cells were seeded in low densities in 96-well plates (PC-3: 3.000 cells/well; HCT-116: 5.000 cells/well; MDA-MB-468: 10.000 cells/well) yielding a seeding confluency of ~ 10 – 20%, and were allowed to adhere overnight. Subsequently, the cells were treated for 48 h with dilutions series (25.6 pM – 10 µM in 5-fold dilutions) of the test compounds (1 mM DMSO stocks). For control measures, cells were treated in parallel with 1% DMSO (negative control, representing the final DMSO content of the highest concentrated sample point, for data normalization set to 100% cell viability) and 100 µM digitonin (positive control, for data normalization set to 0% cell viability). After finalization of the 48 h incubation, the incubation media were discarded, and cells were rinsed once with PBS. Resazurin solution in basal medium

[2] = system: MDA-MB-468 cells; details: 48 h
Method: as §1, §2, §3, §4, §5, §6, §7, §8, §9, §10

[3] = system: HCT-116 cells; details: 48 h
Method: as §1, §2, §3, §4, §5, §6, §7, §8, §9, §10

[4] = system: microtubule network in PC-3 cells
[5] = system: PC-3, HCT-116 and MDA-MB-468 cells; details: all cancer cells tested; resazurin, 48 h (Figure S84)
Method: as §10

Row | SMILES | IC50 [1] [µM] | IC50 [2] [µM] | IC50 [3] [µM] | effect on microtubule structure [4] | cell and nuclear morphology after treatment [4] | cytotoxic profile [5]
1 | CCCCNC(=O)CN(Cc1ccccc1)C(=O)[C@@H]1CCCN1C(=O)[C@@H]1CCCN1C(=O)[C@H](C(C)C)N(C)C(=O)[C@@H](NC(=O)[C@H](C(C)C)N(C)C)C(C)C [Peptide 5a] (NMe2Val-V[NMeV]PP[Nphe]-NHBu) | 1.5 | 0.82 | 2.2 | acts in the initial phase of microtubule network disruption | – | –
2 | CCCCCCNC(=O)CN(Cc1ccccc1)C(=O)[C@@H]1CCCN1C(=O)[C@@H]1CCCN1C(=O)[C@H](C(C)C)N(C)C(=O)[C@@H](NC(=O)[C@H](C(C)C)N(C)C)C(C)C [Peptide 5b] (NMe2Val-V[NMeV]PP[Nphe]-NHHex) | ~5 | 2.1 | 7.2 | – | – | –
3 | CC(C)[C@H](NC(=O)[C@H](C(C)C)N(C)C)C(=O)N(C)[C@H](C(=O)N1CCC[C@H]1C(=O)N1CCC[C@H]1C(=O)N(CC(=O)NCc1ccccc1)Cc1ccccc1)C(C)C [Peptide 5c] (NMe2Val-V[NMeV]PP[Nphe]-NHBn) | 1.9 | 1.1 | 2.3 | – | – | –
4 | CC(C)[C@H](NC(=O)[C@H](C(C)C)N(C)C)C(=O)N(C)[C@H](C(=O)N1CCC[C@H]1C(=O)N1CCC[C@H]1C(=O)N(CC(=O)NC1CCCCC1)Cc1ccccc1)C(C)C [Peptide 5d] (NMe2Val-V[NMeV]PP[Nphe]-NHcHex) | 1.2 | 1.4 | 1.9 | – | – | –
5 | CC(C)[C@H](NC(=O)[C@H](C(C)C)N(C)C)C(=O)N(C)[C@H](C(=O)N1CCC[C@H]1C(=O)N1CCC[C@H]1C(=O)N(CC(=O)NCCCCNC(=O)OCc1ccccc1)Cc1ccccc1)C(C)C [Peptide 5e] (NMe2Val-V[NMeV]PP[Nphe]-X2) | 1.6 | 1.2 | 4.3 | – | – | –
6 | CCCCCCCCCCCCCCCCNC(=O)CN(Cc1ccccc1)C(=O)[C@@H]1CCCN1C(=O)[C@@H]1CCCN1C(=O)[C@H](C(C)C)N(C)C(=O)[C@@H](NC(=O)[C@H](C(C)C)N(C)C)C(C)C [Peptide 5f] (NMe2Val-V[NMeV]PP[Nphe]-NHhexadecyl) | 2.1 | 2.1 | 2.7 | – | – | –
7 | CCCCNC(=O)CN(Cc1cncs1)C(=O)[C@@H]1CCCN1C(=O)[C@@H]1CCCN1C(=O)[C@H](C(C)C)N(C)C(=O)[C@@H](NC(=O)[C@H](C(C)C)N(C)C)C(C)C [Peptide 5h] (NMe2Val-V[NMeV]PP[X1]-NHBu) | 0.03 | 0.024 | 0.05 | microtubule networks appear to be stabilized rather than destabilized | enlarged and showed strongly fragmented nuclei | –
8 | CCCCNC(=O)CN(Cc1ccco1)C(=O)[C@@H]1CCCN1C(=O)[C@@H]1CCCN1C(=O)[C@H](C(C)C)N(C)C(=O)[C@@H](NC(=O)[C@H](C(C)C)N(C)C)C(C)C [Peptide 5i] (NMe2Val-V[NMeV]PP[NFurfurylGly]-NHBu) | 3.7 | 1.2 | > 10 | – | – | –
9 | CC(C)[C@H](NC(=O)[C@H](C(C)C)N(C)C)C(=O)N(C)[C@H](C(=O)N1CCC[C@H]1C(=O)N1CCC[C@H]1C(=O)N(C)Cc1ccccc1)C(C)C [Peptide 5j, N‐Methyl‐cemadotin] (NMe2Val-V[NMeV]PP-{NMe(benzyl)}) | > 10 | > 10 | > 10 | – | – | –
10 | COc1ccc(CNC(=O)[C@H](CC(C)C)N(CC(=O)NCc2ccccc2)C(=O)[C@@H]2CCCN2C(=O)[C@H](C(C)C)N(C)C(=O)[C@@H](NC(=O)[C@H](C(C)C)N(C)C)C(C)C)cc1 [Peptide 11a] | > 10 | > 10 | > 10 | – | – | –
11 | CC(C)C[C@@H](C(=O)NCc1ccccc1)N(CC(=O)NC(C)(C)C)C(=O)[C@@H]1CCCN1C(=O)[C@H](C(C)C)N(C)C(=O)[C@@H](NC(=O)[C@H](C(C)C)N(C)C)C(C)C [Peptide 11b] | > 10 | > 10 | > 10 | – | – | –
12 | CCCCNC(=O)CN(C(=O)[C@@H]1CCCN1C(=O)[C@H](C(C)C)N(C)C(=O)[C@@H](NC(=O)[C@H](C(C)C)N(C)C)C(C)C)[C@@H](CC(C)C)C(=O)NCc1ccccc1 [Peptide 11c] | > 10 | ~5 | 7.9 | – | – | –
13 | CC(C)[C@H](NC(=O)[C@H](C(C)C)N(C)C)C(=O)N(C)[C@H](C(=O)N1CCC[C@H]1C(=O)N(CC(=O)NC1CCCCC1)[C@@H](Cc1ccccc1)C(=O)NCc1ccccc1)C(C)C [Peptide 11d] | > 10 | > 10 | > 10 | – | – | –
14 | CC(C)[C@H](NC(=O)[C@H](C(C)C)N(C)C)C(=O)N(C)[C@H](C(=O)N1CCC[C@H]1C(=O)N(CC(=O)NC1CCCCC1)[C@@H](Cc1ccccc1)C(=O)NCc1ccco1)C(C)C [Peptide 11e] | 9.3 | > 10 | > 10 | – | – | –
15 | CC(C)[C@H](NC(=O)[C@H](C(C)C)N(C)C)C(=O)N(C)[C@H](C(=O)N1CCC[C@H]1C(=O)N(CC(=O)NCc1ccccc1)[C@@H](Cc1ccccc1)C(=O)NCc1ccco1)C(C)C [Peptide 11f] | > 10 | > 10 | > 10 | – | – | –
16 | CCCCNC(=O)CN(C(=O)[C@@H]1CCCN1C(=O)[C@H](C(C)C)N(C)C(=O)[C@@H](NC(=O)[C@H](C(C)C)N(C)C)C(C)C)[C@@H](C)C(=O)NCc1ccc(OC)cc1 [Peptide 11g] | > 10 | > 10 | > 10 | – | – | –
17 | CCCCCCNC(=O)CN(C(=O)[C@@H]1CCCN1C(=O)[C@H](C(C)C)N(C)C(=O)[C@@H](NC(=O)[C@H](C(C)C)N(C)C)C(C)C)[C@@H](C)C(=O)NCc1ccccc1 [Peptide 11h] | > 10 | – | – | – | – | –
18 | CCCCCCCCCCCCCCCCNC(=O)CCN(CC(=O)NC1CCCCC1)C(=O)[C@@H]1CCCN1C(=O)[C@H](C(C)C)N(C)C(=O)[C@@H](NC(=O)[C@H](C(C)C)N(C)C)C(C)C [Peptide 11i] (NMe2Val-V[NMeV]P[N(CH2CH2CO)Gly](NHhexadecyl)-NHcHex) | 2.3 | 3.4 | 6.4 | – | – | inducing the death of all cancer cells tested
19 | CC(C)[C@H](NC(=O)[C@H](C(C)C)N(C)C)C(=O)N(C)[C@H](C(=O)N1CCC[C@H]1C(=O)N1CCC[C@H]1C(=O)NCc1ccccc1)C(C)C [cemadotin, reference compound] (NMe2Val-V[NMeV]PP-NHBn) | 0.0013 | 0.0025 | 0.001 | – | – | –
